Patent publication US12077503B2, “Substituted cyclic amides and their use as herbicides” (FMC CORPORATION, priority 2015, dated 2024)

How the values were obtained:
Format in all cases: in vivo
[1] = system: rice (Oryra sativa); assay: Test B flooded paddy test; conditions: Oryza sativa, 250 g ai/ha, Flood; 0 to 100 scale where 0 is no effect and 100 is complete control; read-out: Rice plant response rating
Method in brief: (§1)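 2-leaf plants; pots flooded 3 cm over soil; cpd added to paddy water; depth held; greenhouse 13–15 d; visual rating vs controls, 0 = no effect, 100 = complete control.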

[2] = system: barnyardgrass (Echinochloa crus-galli); assay: Test B flooded paddy test; conditions: Echinochloa crus-galli, 250 g ai/ha, Flood; 0 to 100 scale where 0 is no effect and 100 is complete control; read-out: Barnyardgrass plant response rating
Method in brief: as §1

[3] = system: sedge, umbrella (small-flower umbrella sedge, Cyperus difformis); assay: Test B flooded paddy test; conditions: Cyperus difformis, 250 g ai/ha, Flood; 0 to 100 scale where 0 is no effect and 100 is complete control; read-out: Sedge, Umbrella plant response rating
Method in brief: as §1

[4] = system: ducksalad (Heteranthera limosa); assay: Test B flooded paddy test; conditions: Heteranthera limosa, 250 g ai/ha, Flood; 0 to 100 scale where 0 is no effect and 100 is complete control; read-out: Ducksalad plant response rating
Method in brief: as §1

[5] = system: wheat (Triticum aestivum); assay: Test A postemergence; conditions: Triticum aestivum, post-emergence, 240 h, Postemergence, read-out: Wheat plant response rating (0 to 100 scale); for plant injury at 125 g/ha: 125 g ai/ha, visual rating about 10 d after treatment; for plant injury at 31 g/ha: 31 g ai/ha, 0 is no effect, 100 is complete control
Method in brief: (§2)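 Seeds sprayed preemergence with a directed soil spray, or plants at 2 to 10 cm height and one- to two-leaf stage sprayed postemergence, with test chemicals in a non-phytotoxic solvent mixture containing surfactant, in loam soil–sand blend. Injury rated visually against untreated controls after about 10 d in greenhouse, 0 (no effect) to 100 (complete control).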

[6] = system: blackgrass (Alopecurus myosuroides); assay: Test A postemergence; conditions: Alopecurus myosuroides, post-emergence, 240 h, Postemergence, read-out: Blackgrass plant response rating (0 to 100 scale); for pest or weed control at 125 g/ha: 125 g ai/ha, visual rating about 10 d after treatment; for pest or weed control at 31 g/ha: 31 g ai/ha, 0 is no effect, 100 is complete control
Method in brief: as §2

[7] = system: ragweed (common ragweed, Ambrosia elatior); assay: Test A postemergence; conditions: Ambrosia artemisiifolia, post-emergence, 240 h, Postemergence, read-out: Ragweed plant response rating (0 to 100 scale); for pest or weed control at 125 g/ha: 125 g ai/ha, visual rating about 10 d after treatment; for pest or weed control at 31 g/ha: 31 g ai/ha, 0 is no effect, 100 is complete control
Method in brief: as §2

[8] = system: Galium (catchweed bedstraw, Galium aparine); assay: Test A postemergence; conditions: Galium, post-emergence, 240 h, Postemergence, read-out: Galium plant response rating (0 to 100 scale); for pest or weed control at 125 g/ha: 125 g ai/ha, visual rating about 10 d after treatment; for pest or weed control at 31 g/ha: 31 g ai/ha, 0 is no effect, 100 is complete control
Method in brief: as §2

[9] = system: barnyardgrass (Echinochloa crus-galli); assay: Test A postemergence; conditions: Echinochloa crus-galli, post-emergence, 240 h, Postemergence; for pest or weed control at 125 g/ha: 125 g ai/ha, visual rating about 10 d after treatment, read-out: Barnyardgrass plant response rating (0 to 100 scale, 0 no effect, 100 complete control); for pest or weed control at 31 g/ha: 31 g ai/ha, 0 is no effect, 100 is complete control, read-out: Barnyardgrass plant response rating (0 to 100 scale)
Method in brief: as §2

[10] = system: ryegrass, Italian (Italian ryegrass, Lolium multiflorum); assay: Test A postemergence; conditions: Lolium multiflorum, post-emergence, 240 h, Postemergence, read-out: Ryegrass, Italian plant response rating (0 to 100 scale); for pest or weed control at 125 g/ha: 125 g ai/ha, visual rating about 10 d after treatment; for pest or weed control at 31 g/ha: 31 g ai/ha, 0 is no effect, 100 is complete control
Method in brief: as §2

[11] = system: pigweed (Amaranthus retroflexus); assay: Test A postemergence; conditions: Amaranthus retroflexus, post-emergence, 240 h, Postemergence, read-out: Pigweed plant response rating (0 to 100 scale); for pest or weed control at 125 g/ha: 125 g ai/ha, visual rating about 10 d after treatment; for pest or weed control at 31 g/ha: 31 g ai/ha, 0 is no effect, 100 is complete control
Method in brief: as §2

[12] = system: giant foxtail (Setaria faberii); assay: Test A postemergence; conditions: Setaria faberi, post-emergence, 240 h, Postemergence, read-out: Foxtail, Giant plant response rating (0 to 100 scale); for pest or weed control at 125 g/ha: 125 g ai/ha, visual rating about 10 d after treatment; for pest or weed control at 31 g/ha: 31 g ai/ha, 0 is no effect, 100 is complete control
Method in brief: as §2

[13] = system: corn (Zea mays); assay: Test A postemergence; conditions: Zea mays, post-emergence, 240 h, Postemergence, read-out: Corn plant response rating (0 to 100 scale); for plant injury at 125 g/ha: 125 g ai/ha, visual rating about 10 d after treatment; for plant injury at 31 g/ha: 31 g ai/ha, 0 is no effect, 100 is complete control
Method in brief: as §2

[14] = system: Kochia (Kochia scoparia); assay: Test A postemergence; conditions: Bassia scoparia, post-emergence, 240 h, Postemergence, read-out: Kochia plant response rating (0 to 100 scale); for pest or weed control at 125 g/ha: 125 g ai/ha, visual rating about 10 d after treatment; for pest or weed control at 31 g/ha: 31 g ai/ha, 0 is no effect, 100 is complete control
Method in brief: as §2

[15] = system: ragweed (common ragweed, Ambrosia elatior); assay: Test A preemergence; conditions: Ambrosia artemisiifolia, pre-emergence, 240 h, 0 to 100 scale where 0 is no effect and 100 is complete control, read-out: Ragweed plant response rating; for pest or weed control at 31 g/ha: 31 g ai/ha, Preemergence; for pest or weed control at 125 g/ha: 125 g ai/ha, preemergence, visual injury rating, approximately 10 d
Method in brief: as §2

[16] = system: barnyardgrass (Echinochloa crus-galli); assay: Test A preemergence; conditions: Echinochloa crus-galli, pre-emergence, 240 h, 0 to 100 scale where 0 is no effect and 100 is complete control, read-out: Barnyardgrass plant response rating; for pest or weed control at 31 g/ha: 31 g ai/ha, Preemergence; for pest or weed control at 125 g/ha: 125 g ai/ha, preemergence, visual injury rating, approximately 10 d
Method in brief: as §2

[17] = system: ryegrass, Italian (Italian ryegrass, Lolium multiflorum); assay: Test A preemergence; conditions: Lolium multiflorum, pre-emergence, 240 h, 0 to 100 scale where 0 is no effect and 100 is complete control, read-out: Ryegrass, Italian plant response rating; for pest or weed control at 31 g/ha: 31 g ai/ha, Preemergence; for pest or weed control at 125 g/ha: 125 g ai/ha, preemergence, visual injury rating, approximately 10 d
Method in brief: as §2

[18] = system: pigweed (Amaranthus retroflexus); assay: Test A preemergence; conditions: Amaranthus retroflexus, pre-emergence, 240 h, 0 to 100 scale where 0 is no effect and 100 is complete control, read-out: Pigweed plant response rating; for pest or weed control at 31 g/ha: 31 g ai/ha, Preemergence; for pest or weed control at 125 g/ha: 125 g ai/ha, preemergence, visual injury rating, approximately 10 d
[19] = system: giant foxtail (Setaria faberii); assay: Test A preemergence; conditions: Setaria faberi, pre-emergence, 240 h, 0 to 100 scale where 0 is no effect and 100 is complete control, read-out: Foxtail, Giant plant response rating; for pest or weed control at 31 g/ha: 31 g ai/ha, Preemergence; for pest or weed control at 125 g/ha: 125 g ai/ha, preemergence, visual injury rating, approximately 10 d
Method in brief: as §2

[20] = system: Kochia (Kochia scoparia); assay: Test A preemergence; conditions: Bassia scoparia, pre-emergence, 240 h, 0 to 100 scale where 0 is no effect and 100 is complete control, read-out: Kochia plant response rating; for pest or weed control at 31 g/ha: 31 g ai/ha, Preemergence; for pest or weed control at 125 g/ha: 125 g ai/ha, preemergence, visual injury rating, approximately 10 d
Method in brief: as §2

Row | Compound | pest or weed control at 250 g/ha [1] | pest or weed control at 250 g/ha [2] | pest or weed control at 250 g/ha [3] | pest or weed control at 250 g/ha [4] | plant injury at 125 g/ha [5] | plant injury at 31 g/ha [5] | pest or weed control at 125 g/ha [6] | pest or weed control at 31 g/ha [6] | pest or weed control at 125 g/ha [7] | pest or weed control at 31 g/ha [7] | pest or weed control at 125 g/ha [8] | pest or weed control at 31 g/ha [8] | pest or weed control at 125 g/ha [9] | pest or weed control at 31 g/ha [9] | pest or weed control at 125 g/ha [10] | pest or weed control at 31 g/ha [10] | pest or weed control at 125 g/ha [11] | pest or weed control at 31 g/ha [11] | pest or weed control at 125 g/ha [12] | pest or weed control at 31 g/ha [12] | further results
1 | CN1C[C@H](c2ccc(C(F)(F)F)cc2)[C@@H](C(=O)Nc2ccccc2-n2cncn2)C1=O [Compound 1288] | 0% | 0% | 0% | 0% | 0% | 0% | 0% | 0% | 0% | 0% | 0% | 0% | 0% | 0% | 0% | 0% | 0% | 0% | 0% | 0% | plant injury at 125 g/ha [13]: 0%; plant injury at 31 g/ha [13]: 0%; pest or weed control at 125 g/ha [14]: 0%; pest or weed control at 31 g/ha [14]: 0%; pest or weed control at 31 g/ha [15]: 0%; pest or weed control at 125 g/ha [15]: 0%; pest or weed control at 31 g/ha [16]: 0%; pest or weed control at 125 g/ha [16]: 0%; pest or weed control at 31 g/ha [17]: 0%; pest or weed control at 125 g/ha [17]: 0%; pest or weed control at 31 g/ha [18]: 0%; pest or weed control at 125 g/ha [18]: 0%; pest or weed control at 31 g/ha [19]: 0%; pest or weed control at 125 g/ha [19]: 0%; pest or weed control at 31 g/ha [20]: 0%; pest or weed control at 125 g/ha [20]: 0%
2 | CN1C[C@H](c2cccc(C(F)(F)F)c2)[C@@H](C(=O)Nc2ccccc2-n2cncn2)C1=O [Compound 1289] | 0% | 0% | 0% | 0% | 0% | 0% | 0% | 0% | 0% | 0% | 0% | 0% | 0% | 0% | 0% | 0% | 0% | 0% | 0% | 0% | plant injury at 125 g/ha [13]: 0%; plant injury at 31 g/ha [13]: 0%; pest or weed control at 125 g/ha [14]: 0%; pest or weed control at 31 g/ha [14]: 0%; pest or weed control at 31 g/ha [15]: 0%; pest or weed control at 125 g/ha [15]: 0%; pest or weed control at 31 g/ha [16]: 20%; pest or weed control at 125 g/ha [16]: 30%; pest or weed control at 31 g/ha [17]: 0%; pest or weed control at 125 g/ha [17]: 0%; pest or weed control at 31 g/ha [18]: 0%; pest or weed control at 125 g/ha [18]: 0%; pest or weed control at 31 g/ha [19]: 50%; pest or weed control at 125 g/ha [19]: 50%; pest or weed control at 31 g/ha [20]: 0%; pest or weed control at 125 g/ha [20]: 0%
